From patent US9303009B2, “Migrastatins and uses thereof” (Sloan-Kettering Institute for Cancer Research, priority 2011, dated 2016)

Tests used:
[1] = tested on: AC3-TGL cells; experiment: human SCLC xenograft model, Example 17; type: in vivo; settings: for tumor growth kinetics at the primary site of injection: all doses
Description: Evaluation of the anti-metastatic activity of ME (19) and CME (25) in a human SCLC xenograft model. These cells, in primary and subsequent in vivo passages in NOD/SCID mice, tend to form liver metastases. The tumor cells were stably transduced with a triple-fusion protein reporter construct (AC3-TGL), and then transplanted by subcutaneous injection with matrigel into NOD/SCID IL2R gamma null (NSG) mice.
Starting 1 day prior to the inoculation of tumor cells, groups of mice were treated with ME at doses of 10 mg/kg, 40 mg/kg, or 200 mg/kg, or with CME at 12 mg/kg or 49 mg/kg (note: dosage levels were adjusted to account for differences in molecular weight: 1 mg ME=1.2 mg CME). Control mice were treated with DMSO vehicle. The compounds were administered by i.p. injection every three days, from Day −1 to Day 55 following cell injection (n≧5 mice per group). During this time, tumor burden and metastatic spread were monitored by serial non-invasive bioluminescent imaging (BLI) at Days 14, 23, 30, 40, and 50. At Day 55, the mice were sacrificed and the metastatic spread of tumor cells to the lungs, liver, heart, kidneys, and spleen was assessed by ex-vivo BLI on the removed organs.
For the results depicted in FIGS. 7a-b: AC3-TGL cells were transplanted by subcutaneous ventral injection into NSG mice. Xenografted mice were treated with indicated dosages of CME or ME every 3 days starting 1 day prior to the inoculation of tumor cells: ME 10 mg/kg (ME10, n=5), 40 mg/kg (ME40, n=5), 200 mg/kg (ME200, n=5), CME 12 mg/kg (CME12, n=5), 49 mg/kg (CME49, n=5) and DMSO vehicle (control, n=6). At day 55, the mice were sacrificed. Three mice in the ME200 group died before the end of treatment. Tumor metastasis at endpoint: At day 55, mice were analyzed for metastasis by ex vivo BLI quantifying luciferase activity in the excised lungs, (Lu), liver (Li), heard (H), kidneys (K), and the spleen (S). Measurements for each mouse are presented in FIG. 7a (circles), with the average per group (short line) and expressed as photon flux (flux in photon/sec) in log scale. P-values were obtained using two-tailed Mann-Whitney U-test. Each picture is presented with the same settings (4 min exposure, photon signal, color scale from 3.10^4 (min) to 5.10^6 (max)).
Xenograft Model for Example 17: A human primary SCLC xenograft model was developed in 10-14 weeks old male NSG mice. Primary tumor samples were obtained after patient informed consent under an MSKCC IRB approved protocol. AC3-TGL tumor cells growing as clumps were dissociated into a single-cell suspension by Trypsin/Collagenase IV (Invitrogen) sequential treatment. Xenografts were performed by subcutaneous ventral injection of 500 AC3-TGL cells in serum-free medium mixed with Matrigel (Becton Dickinson).
One day prior to the tumor cell injection, mice were pretreated with either: (1) Migrastatin Ether (ME) at a dose of 10 mg/kg, 40 mg/kg or 200 mg/kg per mouse; (2) Carboxymethyl-ME (CME) at a dose of 12 mg/kg or 49 mg/kg; or (3) DMSO vehicle control (n≧5 mice per group). Drug treatment was delivered by intraperitoneal injection every 3 days starting from day −1 after cell injection to day 55. During this time, the tumor burden and metastatic spread were monitored by bioluminescence imaging (BLI) at day 14, 23, 30, 40, and 50. At day 55 (endpoint), the mice were killed and the metastatic spread of tumor cells to the lungs, liver, heart, kidneys, and spleen was assessed by ex-vivo BLI on the surgically resected organs.

[2] = tested on: lung cancer (H299-GL, H522-GL, H647-GL, A549-GL, H1993, H1075-GL, H1373-GL H1703 cells); experiment: toxicity by alamarBlue, lung cancer cell lines; type: cell-based; settings: mean of 8 cell lines
Description: Dilutions of DMSO without compound were used as a control. After 18 hrs or 2 days, the cultures were pulsed with 6 μl of alamarBlue® (Invitrogen Inc. Grand Island, N.Y.) and incubated overnight. The alamarBlue® provides a cell growth indicator based on detection of metabolic activity. The assay system incorporates an oxidation-reduction indicator that both fluoresces and changes color in response to chemical reduction of growth medium resulting from cell growth. The fluorescence intensity was measured using a Synergy H1 Microplate Reader (Biotek Inc, Winooski, VT) and a dose-response curve established for IC50 determination.

| Structure (SMILES) | deaths prior to the study endpoint ([1]; 10 mg/kg group) [mice] | Inhibition factor (IF) of overall metastasis ([1]; 10 mg/kg i.p. every 3 days, day 55) [%] | deaths prior to the study endpoint ([1]; 40 mg/kg group) [mice] | Inhibition factor (IF) of overall metastasis ([1]; 40 mg/kg i.p. every 3 days, day 55) [%] | deaths prior to the study endpoint ([1]; 200 mg/kg group) [mice] | Inhibition factor (IF) of overall metastasis ([1]; 200 mg/kg i.p. every 3 days, day 55, 2 surviving mice) [%] | tumor growth kinetics at the primary site of injection [1] | Estimated lethal doses (LD50) ([2]; 48 h exposure) [µM] | Inhibition factor (IF) of overall metastasis ([1]; 12 mg/kg i.p. every 3 days, day 55) [%] | toxicity ([1]; 12 mg/kg or 49 mg/kg cohorts) | Inhibition factor (IF) of overall metastasis ([1]; 49 mg/kg i.p. every 3 days, day 55) [%] | potency relative to ME in inhibiting in vivo metastasis ([1]; at the lowest dosage level) | Estimated lethal doses (LD50) ([2]; 18 h exposure) [µM] |
| --- | --- | --- | --- | --- | --- | --- | --- | --- | --- | --- | --- | --- | --- |
| CO[C@H]1/C=C/CCCCCOC/C(C)=C\[C@@H](C)[C@@H]1O [ME, migrastatin ether] | 2 | 96.2 | 2 | 99.1 | 3 | 99.8 | did not significantly affect | 639.8 | – | – | – | – | – |
| CO[C@H]1/C=C/CCCCCOC/C(C)=C\[C@@H](C)[C@@H]1OCC(=O)O [CME, Carboxymethyl migraether] | – | – | – | – | – | – | did not significantly affect | 697.9 | 99.3 | no toxicity was observed | 99.8 | approximately 4 times | 553.9 |
